Measurements as given in ChEMBL document CHEMBL1150053, “Scalarane-type bishomosester terpenes from the sponge Phyllospongia foliascens” (J Nat Prod, 1992).
In brackets after ≈: the same amount, converted by molar mass.

Tested on: KB
Experiment: Cytotoxicity against human KB cells
Type: functional, cell-based

| SMILES | IC50 [µg/mL] |
| --- | --- |
| CCC(O)CC(=O)O[C@@H]1C[C@@H]2[C@@]3(C)CCC[C@](C)(CC)[C@@H]3CC[C@@]2(C)[C@@H]2C[C@@H](O)C3=C(C(=O)O[C@@H]3C)[C@@]12C (some centres not stated) [PHYLLACTONE A] | 20 (≈ 37.7 µM) |
| CCC(O)CC(=O)O[C@@H]1C[C@@H]2[C@@]3(C)CCC[C@](C)(CC)[C@@H]3CC[C@@]2(C)[C@@H]2C[C@@H](O)C3=C(C(=O)O[C@H]3C)[C@@]12C (some centres not stated) [PHYLLACTONE B] | 20 (≈ 37.7 µM) |
